Measurements taken from the Deep4Chem optical property database.
Where “and” joins values, the source holds several entries; their conditions need not be identical. Equal values may be shown once. Blank lines part the entries; values can stand above or below the compound they belong to.

Test: photoluminescence quantum yield (fraction); solvent given as SMILES

SMILES: CC(C)(C)c1ccc2c(c1)c1cc(C(C)(C)C)ccc1n2-c1ccc(-c2nc(-c3ccc(P(=O)(c4ccccc4)c4ccccc4)cc3)nc(-c3ccc(P(=O)(c4ccccc4)c4ccccc4)cc3)n2)cc1
photoluminescence quantum yield (in O=P(c1ccccc1)(c1ccccc1)c1ccccc1Oc1ccccc1P(=O)(c1ccccc1)c1ccccc1): 0.96

photoluminescence quantum yield (in ClCCl): 0.05
SMILES: CC(C)(C)c1ccc2c(c1)c1cc(C(C)(C)C)ccc1n2-c1ccc(N(c2ccc(-c3ccc(-c4ccc(N(c5ccc(-n6c7ccc(C(C)(C)C)cc7c7cc(C(C)(C)C)ccc76)cc5)c5ccc(-n6c7ccc(C(C)(C)C)cc7c7cc(C(C)(C)C)ccc76)cc5)cc4)c4nsnc34)cc2)c2ccc(-n3c4ccc(C(C)(C)C)cc4c4cc(C(C)(C)C)ccc43)cc2)cc1

photoluminescence quantum yield (in CO): 0.61
SMILES: Cc1cc(C)c(B(c2cc(C#Cc3ccccc3)sc2-c2sc(C#Cc3ccccc3)cc2P(=O)(c2ccccc2)c2ccccc2)c2c(C)cc(C)cc2C)c(C)c1

photoluminescence quantum yield (in ClCCl): 0.02
SMILES: COc1ccc(-c2c3cc4ccccc4cc3c(C#Cc3ccccc3)c3cc4ccccc4cc23)cc1

photoluminescence quantum yield (in ClC(Cl)Cl): 0.35
SMILES: CCCCCCCCCCOc1cc(OCCCCCCCCCC)cc(C2=C3C(C)=CC(/C=C/c4ccc(OC)cc4)=[N+]3[B-](F)(F)n3c(/C=C/c4ccc(OC)cc4)cc(C=Cc4ccc(OC)cc4)c32)c1

SMILES: O=[N+]([O-])c1ccc(S(=O)(=O)Nc2ccc(C#Cc3ccc4ccc5ccc(C#Cc6ccc(NS(=O)(=O)c7ccc([N+](=O)[O-])cc7[N+](=O)[O-])cc6)c6ccc3c4c56)cc2)c([N+](=O)[O-])c1
photoluminescence quantum yield (in CO): 0.003

photoluminescence quantum yield (in O): 0.001
SMILES: Cc1cc(N(C)C)ccc1C1=C2C=CC(=[N+](C)C)C=C2[Si](C)(C)c2cc(N(C)C)ccc21

photoluminescence quantum yield (in CC#N): 0.069
SMILES: Oc1ccccc1/C=N/C1CCCCC1/N=C/c1ccccc1O (configuration not stated)

photoluminescence quantum yield (in CN(C)C=O): 0.2
SMILES: Nc1ccc(N2C(=O)c3ccc4c5ccc6c7c(ccc(c8ccc(c3c48)C2=O)c75)C(=O)N(c2ccc(N)cc2)C6=O)cc1

photoluminescence quantum yield (in CC#N): 0.33 | photoluminescence quantum yield (in CCCCCC): 0.411 | photoluminescence quantum yield (in CO): 0.207 | photoluminescence quantum yield (in ClC(Cl)Cl): 0.439
SMILES: c1ccc2c(-c3cc(-c4nccs4)nc(-c4nccs4)c3)cccc2c1

photoluminescence quantum yield (in CC#N): 0.2
SMILES: O=[N+]([O-])c1ccc(/C=C/c2nc3c4ccccc4c4ccccc4c3o2)cc1

photoluminescence quantum yield (in ClCCl): 0.8
SMILES: C(#Cc1cccc(C#Cc2ccc(-n3c4ccccc4c4ccccc43)cc2)c1)c1ccc(-n2c3ccccc3c3ccccc32)cc1

photoluminescence quantum yield (in C1CCCCC1): 0.04
SMILES: CB1C=Cc2ccc3ccccc3c2N1c1ccccc1

photoluminescence quantum yield (in ClCCl): 0.4
SMILES: COc1ccc2c(c1)-c1cc3c(cc1[Si]2(c1ccccc1)c1ccccc1)-c1ccccc1[Si]3(c1ccccc1)c1ccccc1

photoluminescence quantum yield (in ClCCl): 0.97
SMILES: C(=C\c1ccc(-c2ccncc2)cc1)/c1ccc(-c2ccncc2)cc1

photoluminescence quantum yield (in CO): 0.14
SMILES: CC1(C)C(/C=C/C2=C(Oc3ccc(CCN=C=S)cc3F)C(=C/C=C3/N(CCCS(=O)(=O)[O-])c4ccccc4C3(C)C)/CCC2)=[N+](CCCS(=O)(=O)[O-])c2ccccc21

photoluminescence quantum yield (in ClC(Cl)Cl): 0.11
SMILES: CCCCN1C(=O)c2cc(Br)c3c4c(Br)c(Br)c5c6c(cc(Br)c(c7c(Br)c(Br)c(c2c37)C1=O)c64)C(=O)N(CCCC)C5=O

SMILES: CCCCc1ccc(-n2c3c4cc(F)ccc4nnc3c3c2c2nnc4ccc(F)cc4c2n3-c2ccc(CCCC)cc2)cc1
photoluminescence quantum yield (in Cc1ccccc1): 0

photoluminescence quantum yield (in CC#N): 0.00066
SMILES: COc1cccc(-[c+]2c3ccccc3oc3ccccc32)c1

photoluminescence quantum yield (in ClC(Cl)Cl): 0.04
SMILES: CC1=c2cc3c(cc2=[N+]2C1=Cc1c4ccccc4c(C)n1[B-]2(F)F)C1=Cc2c4ccccc4c(C)n2[B-](F)(F)[N+]1=C3C

SMILES: COc1ccc(-c2nc(N)nc(C#N)c2C#N)cc1OC
photoluminescence quantum yield (in C1COCCO1): 0.0073 | photoluminescence quantum yield (in CC#N): 0.0893 | photoluminescence quantum yield (in CC(C)=O): 0.0272 | photoluminescence quantum yield (in CCO): 0.0105 | photoluminescence quantum yield (in CCOC(C)=O): 0.0185 | photoluminescence quantum yield (in CO): 0.0143

photoluminescence quantum yield (in ClC(Cl)Cl): 0.01 and 0.03
SMILES: C[Si](C)(C)C#CC(C#C[Si](C)(C)C)=Cc1ccc(C=C(C#C[Si](C)(C)C)C#C[Si](C)(C)C)cc1

photoluminescence quantum yield (in ClCCl): 0.144
SMILES: Oc1ccccc1-c1nc(-c2ccccc2)c2ccccn12

photoluminescence quantum yield (in CC#N): 0.94
SMILES: COc1ccc(C2=[O+][B-](F)(F)OC(c3ccc4c(c3)Cc3ccccc3-4)=C2)cc1

photoluminescence quantum yield (in C1CCOC1): 0.94 | photoluminescence quantum yield (in CC#N): 0.86 | photoluminescence quantum yield (in ClC(Cl)Cl): 0.88 | photoluminescence quantum yield (in ClCCl): 0.86
SMILES: COc1cc(/C=C/c2nc3ccccc3s2)c(OC)cc1/C=C/c1nc(C)nc(C)n1

photoluminescence quantum yield (in CC#N): 0.1
SMILES: CN1/C(=C\C=C\C2=C3C=CC(c4ccccc4)=[N+]3[B-](F)(F)n3c2ccc3-c2ccccc2)C(C)(C)c2ccccc21

photoluminescence quantum yield (in C1CCCCC1): 0.89 | photoluminescence quantum yield (in CC#N): 0.86 | photoluminescence quantum yield (in CC(C)O): 0.96 | photoluminescence quantum yield (in CO): 0.84 | photoluminescence quantum yield (in CS(C)=O): 0.98 | photoluminescence quantum yield (in ClC(Cl)Cl): 0.96 | photoluminescence quantum yield (in c1ccccc1): 0.85
SMILES: CN(C)c1ccc2nc(-c3ccc(C(=O)O)cc3)sc2c1

photoluminescence quantum yield (in ClCCl): 0.45
SMILES: COCCOCCOCCOCC(COCCOCCOCCOC)Oc1cc(/C=C/c2ccc(/C=C(\C#N)c3ccncc3)cc2)c(OC(COCCOCCOCCOC)COCCOCCOCCOC)cc1/C=C/c1ccc(/C=C(\C#N)c2ccncc2)cc1

photoluminescence quantum yield (in ClC(Cl)Cl): 0.53 | photoluminescence quantum yield (in ClCCl): 0.57
SMILES: F[B-]1(F)OC(c2ccccc2)=Cc2ccc3ccccc3[n+]21

SMILES: CCOC(=O)COc1ccc(/C=C/c2c(CC)c(C)c3n2[B-](F)(F)[N+]2=C(c4[nH]c(C)c(CC)c4C)c4ccccc4C2=C3C)cc1
photoluminescence quantum yield (in C1CCOC1): 0.28 | photoluminescence quantum yield (in CC#N): 0.09 | photoluminescence quantum yield (in CCCCCC): 0.74 | photoluminescence quantum yield (in CO): 0.2 | photoluminescence quantum yield (in Cc1ccccc1): 0.71 | photoluminescence quantum yield (in ClCCl): 0.68

photoluminescence quantum yield (in C1CCCCC1): 0.47 | photoluminescence quantum yield (in C1CCOC1): 0.32 | photoluminescence quantum yield (in C1COCCO1): 0.35 | photoluminescence quantum yield (in CC#N): 0.32 | photoluminescence quantum yield (in CCCCCC): 0.45 | photoluminescence quantum yield (in CO): 0.31 | photoluminescence quantum yield (in ClC(Cl)Cl): 0.41
SMILES: F[B-]1(F)n2c(nc(Br)c2Br)-c2cccc[n+]21

photoluminescence quantum yield (in ClC(Cl)Cl): 0.75
SMILES: CCOC(CN1C(=O)C2=C(c3cc4cc(C(C)(C)C)cc(C(C)(C)C)c4o3)N(CC(OCC)OCC)C(=O)C2=C1c1cc2cc(C(C)(C)C)cc(C(C)(C)C)c2o1)OCC

photoluminescence quantum yield (in CCCCCC): 0.04
SMILES: CC(C)[Si](C#Cc1ccc(C#C[Si](C(C)C)(C(C)C)C(C)C)c2nc3c(nc12)Cc1ccccc1-3)(C(C)C)C(C)C

photoluminescence quantum yield (in CC#N): 0.043
SMILES: Cc1cc(C)c2nc3[nH]c(=O)[nH]c(=O)c3nc2c1

photoluminescence quantum yield (in ClCCl): 0.82
SMILES: c1ccc2c(c1)OP1(=NP3(=NP(Oc4ccc5ccc6cccc7ccc4c5c67)(Oc4ccc5ccc6cccc7ccc4c5c67)=N1)Oc1ccccc1-c1ccccc1O3)Oc1ccccc1-2

photoluminescence quantum yield (in C1CCOC1): 0.72
SMILES: CC(C)(C)c1ccc(/C=C/c2ccc(N(c3ccc(/C=C/c4ccc(C(C)(C)C)cc4)cc3)c3ccc(-c4nc5ccccc5nc4-c4ccc(N(c5ccc(/C=C/c6ccc(C(C)(C)C)cc6)cc5)c5ccc(/C=C/c6ccc(C(C)(C)C)cc6)cc5)cc4)cc3)cc2)cc1

SMILES: COC(=O)/C(C#N)=c1\s/c(=c2/s/c(=C(/C#N)C(=O)OC)c3cc(-c4ccc5c(c4)C(C)(C)c4ccccc4-5)sc23)c2sc(-c3ccc4c(c3)C(C)(C)c3ccccc3-4)cc12
photoluminescence quantum yield (in Cc1ccccc1): 0.531

photoluminescence quantum yield (in CN(C)C=O): 0.98
SMILES: Cc1ccc2[nH]c(-c3ccc(-c4ccc(-c5ccc(-c6nc7cc(C)ccc7[nH]6)cc5)c(F)c4)cc3)nc2c1

SMILES: c1ccc(N2c3ccccc3Sc3cc(-c4cccc5nc6ccccc6cc45)ccc32)cc1
photoluminescence quantum yield (in CC#N): 0.0076 | photoluminescence quantum yield (in CCCCCC): 0.213 | photoluminescence quantum yield (in CCOCC): 0.17 | photoluminescence quantum yield (in ClCCl): 0.0635

photoluminescence quantum yield (in ClC(Cl)Cl): 0.08
SMILES: CC[Si](C#Cc1c2c(=O)c3ccccc3c2c(C#C[Si](CC)(CC)CC)c2c(=O)c3ccccc3c12)(CC)CC

photoluminescence quantum yield (in ClC(Cl)Cl): 0.01
SMILES: C[Si](C)(C)C#CC(C#C[Si](C)(C)C)=Cc1ccc(C=C(C#C[Si](C)(C)C)C#C[Si](C)(C)C)s1

photoluminescence quantum yield (in ClC(Cl)Cl): 0.008
SMILES: O=C1c2ccc3c4c(NC5CCCCC5)cc5c6c(ccc(c7c(NC8CCCCC8)cc(c2c37)C(=O)N1C1CCCCC1)c64)C(=O)N(C1CCCCC1)C5=O

photoluminescence quantum yield (in ClC(Cl)Cl): 0.1
SMILES: COc1ccc(C2=c3sc(-c4ccc(OC)cc4)cc3=[N+]3C2=Nc2c(-c4ccc(OC)cc4)c4sc(-c5ccc(OC)cc5)cc4n2[B-]3(F)F)cc1

photoluminescence quantum yield (in ClCCl): 0.9
SMILES: CCCCN1c2ccccc2B(c2ccccc2C(F)(F)F)c2ccccc21

photoluminescence quantum yield (in ClCCl): 0.81
SMILES: Nc1ccc2c(ccc3[n+]2[B-](F)(F)n2c-3cc3c4ccccc4c4ccccc4c32)c1

photoluminescence quantum yield (in ClCCl): 0.109
SMILES: C(S/C=C/c1ccc(/C=C/SC=C2CCCCCC2)cc1)=C1CCCCCC1

photoluminescence quantum yield (in ClC(Cl)Cl): 0.71
SMILES: N#Cc1nc(N(Cc2ccc(Cl)cc2)Cc2ccc(Cl)cc2)c(C#N)nc1N(Cc1ccc(Cl)cc1)Cc1ccc(Cl)cc1

photoluminescence quantum yield (in ClC(Cl)Cl): 0.06
SMILES: Cc1cccc(C2=Cc3c4ccccc4cc[n+]3[B-](F)(F)O2)c1

photoluminescence quantum yield (in CS(C)=O): 0.31 | photoluminescence quantum yield (in ClCCl): 0.008
SMILES: CC(C)(C)OC(=O)COc1ccc2c(c1)oc(=O)c1c(=O)oc3ccccc3c12

photoluminescence quantum yield (in ClCCl): 0.57
SMILES: CCc1cccc(CC)c1-c1c2ccccc2c(C#Cc2ccccc2)c2cc3ccccc3cc12

photoluminescence quantum yield (in c1cc(-n2c3ccccc3c3ccccc32)nc(-n2c3ccccc3c3ccccc32)c1): 0.89
SMILES: CC(C)(C)c1ccc(-c2nnc(-c3c(-n4c5ccccc5c5ccccc54)c(-n4c5ccccc5c5ccccc54)c(-c4nnc(-c5ccc(C(C)(C)C)cc5)o4)c(-n4c5ccccc5c5ccccc54)c3-n3c4ccccc4c4ccccc43)o2)cc1

photoluminescence quantum yield (in ClCCl): 0.212
SMILES: COc1ccc(C2=C(C)C3=C(c4c(-c5ccccn5)nc5ccccn45)c4c(C)cc(C)n4[B-](F)(F)[N+]3=C2C)cc1

photoluminescence quantum yield (in ClC(Cl)Cl): 0.41 and 0.408
SMILES: CC(C)(C)n1c(=O)c2cc3ccc4cccc5ccc(c2c1=O)c3c45

photoluminescence quantum yield (in ClCCl): 0.24
SMILES: c1ccc(-c2cccc3ncc(-c4ccccc4)n23)cc1

photoluminescence quantum yield (in CC#N): 0.38
SMILES: Cc1c2ccc3c(C)[n+](C)ccc3c2cc[n+]1C

photoluminescence quantum yield (in CC#N): 0.49 | photoluminescence quantum yield (in CO): 0.54 | photoluminescence quantum yield (in ClCCl): 0.59 | photoluminescence quantum yield (in OCC(O)CO): 0.47
SMILES: CCCn1c2cccc3oc4cccc5oc6cccc1c6[c+](c45)c32
